Measured values: patent US9688722B2, “Substrates and inhibitors of prolyl oligopeptidase and methods of use” (The Board of Regents of the University of Oklahoma, priority 2012, dated 2017)
Where “and” joins values, the source holds several entries; their conditions need not be identical. Identical values can stand only once.

Columns and labels:
Aqueous solubility = format: physicochemical; conditions: result in words
Procedure: The specific POP inhibitor, J94 (acetyl-Lys-Leu-Arg-(L)boroPro (Ki<100 nM)); and the substrate, C95 (acetyl-Arg-AEEA-Gly-Pro-AMC), were designed, synthesized and characterized by us as previously reported. […] The inhibitors (J94 and M83) were dissolved in Hanks Balanced Salt Solution (HBSS; Gibco) at 1 mM and stored at −20° C. The substrate (C95) was dissolved in HBSS at 2.5 mM and stored at 4° C. […] Tic-Pro-AFC, a prolyl-specific fluorescent substrate, was supplied by Vantia (Southampton, England).

[1] = system: human lung adenocarcinoma epithelial cells; experiment: Lung cancer xenografts in nude mice; format: in vivo
Procedure: Mice were given a 50 μl injection into each hind leg consisting of human lung adenocarcinoma epithelial cells (2×10^6 cells) suspended in Matrigel™. After ten days the tumors had grown to an estimated 40 mm^3, so M83 treatment was initiated (day 0 in graph). For the M83 treatment group, mice were given a daily intraperitoneal injection of 26.5 micrograms of M83 dissolved in 20 microliters of sterile saline. The mice of the control group were given an intraperitoneal injection of 20 microliters of sterile saline. […] The treatment groups consisted of three mice each with two tumors per mouse.

APCE/FAP = molecular target: T1, APCE/FAP (Homo sapiens, UniProt Q12884); experiment: APCE/FAP inhibition constants (Ki) with Tic-Pro-AFC substrate; format: biochemical; conditions: substrate Tic-Pro-AFC
T1 construct: absence of an about 26-residue amino terminal peptide constituting the transmembrane and intracytosolic domains; from tissue
T1 sequence (Q12884 24-760 limits assumed): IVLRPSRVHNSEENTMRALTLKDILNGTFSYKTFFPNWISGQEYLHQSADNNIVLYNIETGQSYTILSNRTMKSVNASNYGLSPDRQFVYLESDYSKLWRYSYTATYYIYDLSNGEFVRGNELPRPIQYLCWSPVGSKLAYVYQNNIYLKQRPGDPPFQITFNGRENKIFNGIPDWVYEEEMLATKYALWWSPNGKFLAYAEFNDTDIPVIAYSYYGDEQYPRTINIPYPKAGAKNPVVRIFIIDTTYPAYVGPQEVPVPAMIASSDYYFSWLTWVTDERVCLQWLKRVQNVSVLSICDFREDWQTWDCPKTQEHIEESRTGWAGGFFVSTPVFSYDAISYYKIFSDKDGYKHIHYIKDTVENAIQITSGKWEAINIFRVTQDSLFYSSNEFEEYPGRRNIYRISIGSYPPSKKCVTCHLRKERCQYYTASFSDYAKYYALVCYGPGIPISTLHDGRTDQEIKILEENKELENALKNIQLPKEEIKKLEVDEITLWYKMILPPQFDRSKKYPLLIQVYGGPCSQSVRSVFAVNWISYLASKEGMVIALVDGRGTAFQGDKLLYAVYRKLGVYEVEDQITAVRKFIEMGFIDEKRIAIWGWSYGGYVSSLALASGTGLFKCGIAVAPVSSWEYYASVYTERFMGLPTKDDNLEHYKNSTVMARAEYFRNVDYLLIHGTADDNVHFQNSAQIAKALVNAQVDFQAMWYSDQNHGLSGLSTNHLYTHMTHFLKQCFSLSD
Procedure: (§1) For accurate assessment of kinetic parameters, saturating concentrations of substrate were used. For standard curves, dilutions of AFC (7-amino-4-trifluoromethylcoumarin) were prepared in the same assay buffer and corresponding fluorescence was measured.

DPPIV = DPPIV (Homo sapiens, UniProt P27487); experiment: DPPIV inhibition constants (Ki) with Tic-Pro-AFC substrate; format: biochemical
Procedure: as §1

[2] = system: HCT116 human colon cancer xenografts; experiment: HCT116 human colon cancer xenografts in immunodeficient mice; format: in vivo; conditions: 28-day treatment period

DPPIV, sequence (P27487 whole entry, species assumed): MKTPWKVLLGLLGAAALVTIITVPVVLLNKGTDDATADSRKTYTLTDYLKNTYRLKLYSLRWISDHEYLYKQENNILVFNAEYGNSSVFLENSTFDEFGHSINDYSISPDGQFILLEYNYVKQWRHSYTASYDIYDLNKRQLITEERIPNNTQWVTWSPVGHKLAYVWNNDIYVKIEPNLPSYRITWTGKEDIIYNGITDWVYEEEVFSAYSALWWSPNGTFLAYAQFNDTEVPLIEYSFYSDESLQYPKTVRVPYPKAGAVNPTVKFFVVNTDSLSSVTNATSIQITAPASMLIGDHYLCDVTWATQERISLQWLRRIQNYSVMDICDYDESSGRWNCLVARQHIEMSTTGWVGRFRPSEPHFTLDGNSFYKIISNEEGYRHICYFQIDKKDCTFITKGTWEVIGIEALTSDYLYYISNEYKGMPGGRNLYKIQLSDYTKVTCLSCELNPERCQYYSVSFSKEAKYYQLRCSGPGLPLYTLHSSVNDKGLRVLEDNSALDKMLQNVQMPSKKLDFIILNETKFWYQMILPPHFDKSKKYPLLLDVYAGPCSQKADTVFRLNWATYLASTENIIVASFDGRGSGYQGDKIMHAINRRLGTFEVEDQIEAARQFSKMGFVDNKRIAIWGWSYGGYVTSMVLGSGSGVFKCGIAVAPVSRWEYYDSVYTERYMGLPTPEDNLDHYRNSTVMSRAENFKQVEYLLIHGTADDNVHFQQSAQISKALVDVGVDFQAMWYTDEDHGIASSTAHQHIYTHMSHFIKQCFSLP

- solubility in aqueous buffers (Aqueous solubility): soluble in aqueous buffers
- Ki (APCE/FAP): 0.0057 µM
- Selectivity Ki (DPPIV) / Ki (APCE-FAP) (DPPIV; ratio of Ki values): 1076
- inhibition of DPPIV (DPPIV; result in words): nor was it inhibited
- Ki (DPPIV; substrate Tic-Pro-AFC): 6.13 µM and 6.14 µM
Compound: CC(=O)N[C@@H](CCCNC(=N)N)C(=O)NCCOCCOCC(=O)N[C@H](C)C(=O)N1CCC[C@H]1B(O)O [Compound M83, acetyl-Arg-AEEA-(D)Ala-(L)boroPro]
- tumor growth ([1]; daily intraperitoneal 26.5 micrograms, nude mice, versus saline control): failed to progress
- average tumor volume ([1]; day 28 of treatment versus day zero): no greater than on day zero
- tumors completely disappeared ([1]; six tumors in treatment group, 28 days): one of the six tumors
- effectiveness on cancer growth relative to J94 [2]: slightly more effective than this
